Test results published in ChEMBL document CHEMBL2157907, “Optimization of anti-Trypanosoma cruzi oxadiazoles leads to identification of compounds with efficacy in infected mice” (Bioorg Med Chem, 2012).
Activity calls are given as the source filed them. No cut-off for these calls is given here.

How the values were obtained:
[1] = Cytotoxicity against BALB/c mouse splenocytes after 24 hrs by [3H]-thymidine incorporation assay; type: cell-based, Splenocyte; conditions: read-out: LC50
[2] = molecular target: Cruzipain (Trypanosoma cruzi) (UniProt P25779); assay: Inhibition of Trypanosoma cruzi cruzain using Z-Phe-Arg-aminomethylcoumarin as substrate at 100 uM after 10 mins
Mus musculus [3] = assay: Toxicity in BALB/c mouse assessed as serum ALB level at 50 mg/kg, po after 24 hrs; type: organism-based; design: dose 50 mg/kg, route oral; conditions: in vivo
Mus musculus [4] = assay: Toxicity in BALB/c mouse assessed as serum GGT level at 100 mg/kg, po after 24 hrs; type: organism-based; design: dose 100 mg/kg, route oral; conditions: in vivo
Mus musculus [5] = assay: Toxicity in BALB/c mouse assessed as serum globulin level at 50 mg/kg, po after 24 hrs; type: organism-based; design: dose 50 mg/kg, route oral; conditions: in vivo
Trypanosoma cruzi [6] = assay: Induction of endoplasmic reticulum degeneration in trypomastigotes of Trypanosoma cruzi Y at 3.5 uM after 24 hrs by […] electron microscopic analysis; type: functional, organism-based
Mus musculus [7] = assay: Toxicity in BALB/c mouse assessed as serum BUN level at 50 mg/kg, po after 24 hrs; type: organism-based; design: dose 50 mg/kg, route oral; conditions: in vivo
Trypanosoma cruzi [8] = assay: Induction of kinetoplast enlargement in trypomastigotes of Trypanosoma cruzi Y at 3.5 uM after 24 hrs by […] electron microscopic analysis; type: functional, organism-based
Mus musculus [9] = assay: Toxicity in BALB/c mouse assessed as serum GGT level at 25 mg/kg, po after 24 hrs; type: organism-based; design: dose 25 mg/kg, route oral; conditions: in vivo
Mus musculus [10] = assay: Toxicity in BALB/c mouse assessed as serum uric acid level at 100 mg/kg, po after 24 hrs; type: organism-based; design: dose 100 mg/kg, route oral; conditions: in vivo
Mus musculus [11] = assay: Toxicity in BALB/c mouse assessed as serum cholesterol level at 100 mg/kg, po after 24 hrs; type: organism-based; design: dose 100 mg/kg, route oral; conditions: in vivo
Mus musculus [12] = assay: Toxicity in BALB/c mouse assessed as serum AML level at 100 mg/kg, po after 24 hrs; type: organism-based; design: dose 100 mg/kg, route oral; conditions: in vivo
Mus musculus [13] = assay: Toxicity in BALB/c mouse assessed as serum alkaline phosphatase level at 25 mg/kg, po after 24 hrs; type: organism-based; design: dose 25 mg/kg, route oral; conditions: in vivo
Mus musculus [14] = assay: Toxicity in BALB/c mouse assessed as serum GGT level at 50 mg/kg, po after 24 hrs; type: organism-based; design: dose 50 mg/kg, route oral; conditions: in vivo
Trypanosoma cruzi [15] = assay: Induction of ultrastructural changes in trypomastigotes of Trypanosoma cruzi Y assessed as plasma membrane protrusions at 10 uM after 24 hrs by scanning electron microscopic analysis; type: functional
Mus musculus [16] = assay: Toxicity in BALB/c mouse assessed as serum total proteins level at 50 mg/kg, po after 24 hrs; type: organism-based; design: dose 50 mg/kg, route oral; conditions: in vivo
Mus musculus [17] = assay: Toxicity in BALB/c mouse assessed as serum cholesterol level at 50 mg/kg, po after 24 hrs; type: organism-based; design: dose 50 mg/kg, route oral; conditions: in vivo
Mus musculus [18] = assay: Toxicity in BALB/c mouse assessed as serum Ca2+ level at 50 mg/kg, po after 24 hrs; type: organism-based; design: dose 50 mg/kg, route oral; conditions: in vivo
Mus musculus [19] = assay: Toxicity in BALB/c mouse assessed as serum AML level at 50 mg/kg, po after 24 hrs; type: organism-based; design: dose 50 mg/kg, route oral; conditions: in vivo
Trypanosoma cruzi [20] = assay: Antitrypanosomal activity against trypomastigotes of Trypanosoma cruzi Y infected in BALB/c mouse assessed as reduction of parasite level in blood at 50 mg/kg, po administered after 5 days of postinfection qd for 5 days; type: functional, organism-based; design: dose 50 mg/kg
Trypanosoma cruzi [21] = assay: Antitrypanosomal activity against trypomastigotes of Trypanosoma cruzi Y infected in rhesus monkey LLC-MK2 cells assessed parasite viability after 24 hrs; type: functional, organism-based; conditions: LLC-MK2, 24 h
Mus musculus [22] = assay: Toxicity in BALB/c mouse assessed as serum total proteins level at 100 mg/kg, po after 24 hrs; type: organism-based; design: dose 100 mg/kg, route oral; conditions: in vivo
Mus musculus [23] = assay: Toxicity in BALB/c mouse assessed as serum uric acid level at 50 mg/kg, po after 24 hrs; type: organism-based; design: dose 50 mg/kg, route oral; conditions: in vivo
Trypanosoma cruzi [24] = assay: Antitrypanosomal activity against trypomastigotes of Trypanosoma cruzi Y in BALB/c mouse peritoneal exudate macrophages assessed as reduction of parasite infection to cells at 10 ug/ml treated simultaneously with parasite measured after 2 hrs; type: functional, organism-based
Mus musculus [25] = assay: Toxicity in BALB/c mouse assessed as serum ALT level at 25 mg/kg, po after 24 hrs; type: organism-based; design: dose 25 mg/kg, route oral; conditions: in vivo
Mus musculus [26] = assay: Toxicity in BALB/c mouse assessed as serum AML level at 25 mg/kg, po after 24 hrs; type: organism-based; design: dose 25 mg/kg, route oral; conditions: in vivo
Mus musculus [27] = assay: Toxicity in BALB/c mouse assessed as serum ALB level at 25 mg/kg, po after 24 hrs; type: organism-based; design: dose 25 mg/kg, route oral; conditions: in vivo
Mus musculus [28] = assay: Toxicity in BALB/c mouse assessed as serum cholesterol level at 25 mg/kg, po after 24 hrs; type: organism-based; design: dose 25 mg/kg, route oral; conditions: in vivo
Mus musculus [29] = assay: Toxicity in BALB/c mouse assessed as serum ALT level at 100 mg/kg, po after 24 hrs; type: organism-based; design: dose 100 mg/kg, route oral; conditions: in vivo
Mus musculus [30] = assay: Toxicity in BALB/c mouse assessed as serum Ca2+ level at 25 mg/kg, po after 24 hrs; type: organism-based; design: dose 25 mg/kg, route oral; conditions: in vivo
Trypanosoma cruzi [31] = assay: Induction of golgi apparatus degeneration in trypomastigotes of Trypanosoma cruzi Y at 3.5 uM after 24 hrs by […] electron microscopic analysis; type: functional, organism-based
Mus musculus [32] = assay: Toxicity in BALB/c mouse assessed as serum alkaline phosphatase level at 100 mg/kg, po after 24 hrs; type: organism-based; design: dose 100 mg/kg, route oral; conditions: in vivo
Trypanosoma cruzi [33] = assay: Antitrypanosomal activity against epimastigotes of Trypanosoma cruzi Y after 5 days; type: functional, organism-based; conditions: 120 h
Mus musculus [34] = assay: Toxicity in BALB/c mouse assessed as serum ALB level at 100 mg/kg, po after 24 hrs; type: organism-based; design: dose 100 mg/kg, route oral; conditions: in vivo
Mus musculus [35] = assay: Toxicity in BALB/c mouse assessed as serum total proteins level at 25 mg/kg, po after 24 hrs; type: organism-based; design: dose 25 mg/kg, route oral; conditions: in vivo
[36] = Therapeutic index, ratio of LC50 for BALB/c mouse splenocytes to IC50 for Trypanosoma cruzi Y; conditions: read-out: Ratio LC50/IC50
Mus musculus [37] = assay: Toxicity in BALB/c mouse assessed as mortality at 25 to 100 mg/kg, po; type: organism-based; design: dose 25-100 mg/kg, route oral; conditions: in vivo
Trypanosoma cruzi [38] = assay: Antitrypanosomal activity against trypomastigotes of Trypanosoma cruzi Y infected in BALB/c mouse peritoneal exudate macrophages assessed as reduction of parasite level at 10 ug/ml after 4 days; type: functional, organism-based
Mus musculus [39] = assay: Toxicity in BALB/c mouse assessed as serum ALT level at 50 mg/kg, po after 24 hrs; type: organism-based; design: dose 50 mg/kg, route oral; conditions: in vivo
Mus musculus [40] = assay: Toxicity in BALB/c mouse assessed as serum uric acid level at 25 mg/kg, po after 24 hrs; type: organism-based; design: dose 25 mg/kg, route oral; conditions: in vivo
Mus musculus [41] = assay: Toxicity in BALB/c mouse assessed as serum globulin level at 25 mg/kg, po after 24 hrs; type: organism-based; design: dose 25 mg/kg, route oral; conditions: in vivo
Mus musculus [42] = assay: Toxicity in BALB/c mouse assessed as serum BUN level at 25 mg/kg, po after 24 hrs; type: organism-based; design: dose 25 mg/kg, route oral; conditions: in vivo
Mus musculus [43] = assay: Toxicity in BALB/c mouse assessed as serum globulin level at 100 mg/kg, po after 24 hrs; type: organism-based; design: dose 100 mg/kg, route oral; conditions: in vivo
Mus musculus [44] = assay: Toxicity in BALB/c mouse assessed as serum alkaline phosphatase level at 50 mg/kg, po after 24 hrs; type: organism-based; design: dose 50 mg/kg, route oral; conditions: in vivo
Mus musculus [45] = assay: Toxicity in BALB/c mouse assessed as serum Ca2+ level at 100 mg/kg, po after 24 hrs; type: organism-based; design: dose 100 mg/kg, route oral; conditions: in vivo
Mus musculus [46] = assay: Toxicity in BALB/c mouse assessed as serum BUN level at 100 mg/kg, po after 24 hrs; type: organism-based; design: dose 100 mg/kg, route oral; conditions: in vivo
Trypanosoma cruzi [47] = assay: Induction of mitochondria degeneration in trypomastigotes of Trypanosoma cruzi Y at 3.5 uM after 24 hrs by […] electron microscopic analysis; type: functional, organism-based
Trypanosoma cruzi [48] = assay: Antitrypanosomal activity against trypomastigotes of Trypanosoma cruzi Y infected in BALB/c mouse assessed as reduction of parasite level in blood at 100 mg/kg, po administered after 5 days of postinfection qd for 5 days; type: functional, organism-based; design: dose 100 mg/kg
Cruzipain = Cruzipain (Trypanosoma cruzi, UniProt P25779); assay: Inhibition of Trypanosoma cruzi cruzain using Z-Phe-Arg-aminomethylcoumarin as substrate after 10 mins
Sequence of Cruzipain (P25779 whole entry): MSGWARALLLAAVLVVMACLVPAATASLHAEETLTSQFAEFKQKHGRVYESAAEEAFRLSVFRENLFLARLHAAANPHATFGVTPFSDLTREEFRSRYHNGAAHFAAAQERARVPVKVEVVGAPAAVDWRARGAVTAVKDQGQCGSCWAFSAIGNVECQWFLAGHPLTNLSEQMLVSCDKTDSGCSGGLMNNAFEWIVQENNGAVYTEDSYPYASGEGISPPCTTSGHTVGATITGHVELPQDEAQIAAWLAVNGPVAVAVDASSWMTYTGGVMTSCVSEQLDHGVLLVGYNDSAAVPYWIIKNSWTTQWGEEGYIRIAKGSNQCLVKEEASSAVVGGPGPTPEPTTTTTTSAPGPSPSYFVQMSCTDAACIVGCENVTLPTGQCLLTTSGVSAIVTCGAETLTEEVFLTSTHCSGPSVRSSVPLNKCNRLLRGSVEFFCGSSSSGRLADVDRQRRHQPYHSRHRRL

Sequence of Cruzipain (Trypanosoma cruzi) (P25779 123-467 limits assumed): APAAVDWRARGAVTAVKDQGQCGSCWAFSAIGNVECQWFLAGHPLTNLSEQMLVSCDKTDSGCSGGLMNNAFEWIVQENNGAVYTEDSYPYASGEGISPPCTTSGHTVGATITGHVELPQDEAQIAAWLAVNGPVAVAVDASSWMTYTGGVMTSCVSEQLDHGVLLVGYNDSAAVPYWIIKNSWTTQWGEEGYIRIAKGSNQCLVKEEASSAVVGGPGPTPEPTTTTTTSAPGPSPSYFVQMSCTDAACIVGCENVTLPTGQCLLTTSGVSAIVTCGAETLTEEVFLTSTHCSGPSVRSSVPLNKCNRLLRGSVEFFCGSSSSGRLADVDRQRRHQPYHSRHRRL

SMILES: CN(C)c1ccc(C(=C2C=CC(=[N+](C)C)C=C2)c2ccc(N(C)C)cc2)cc1 [GENTIAN VIOLET]
- CC50 at 24 h [1]: 0.11 µg/mL

SMILES: O=C(N/N=C/c1ccc2c(c1)OCO2)c1nc(-c2ccc(O)cc2)no1
- inhibition [2]: 17%
- CC50 at 24 h [1]: > 100 µg/mL

SMILES: O=C(N/N=C/c1ccc2c(c1)OCO2)c1nc(-c2ccc(Cl)cc2)no1
- Activity (Mus musculus [3]): 2.67 g/dL
- Activity (Mus musculus [4]): 1 U/L
- Activity (Mus musculus [5]): 2.16 g/dL
- Activity (Trypanosoma cruzi [6]): Active
- Activity (Mus musculus [7]): 18.07 mg/dL
- Activity (Trypanosoma cruzi [8]): Active
- Activity (Mus musculus [9]): 1 U/L
- Activity (Mus musculus [10]): 2 mg/dL
- Activity (Mus musculus [11]): 54.5 mg/dL
- Activity (Mus musculus [12]): 1170 U/L
- Activity (Mus musculus [13]): 148 U/L
- Activity (Mus musculus [14]): 0.67 U/L
- Activity (Trypanosoma cruzi [15]): 80%
- Activity (Mus musculus [16]): 4.86 g/dL
- Activity (Mus musculus [17]): 59.5 mg/dL
- Activity (Mus musculus [18]): 9.45 mg/dL
- Activity (Mus musculus [19]): 1268 U/L
- Activity (Trypanosoma cruzi [20]): Active
- IC50 (Trypanosoma cruzi [21]): 3.5 µM
- Activity (Mus musculus [22]): 5.1 g/dL
- Activity (Mus musculus [23]): 1.46 mg/dL
- Activity (Trypanosoma cruzi [24]): Active
- inhibition [2]: 42%
- Activity (Mus musculus [25]): 32.5 U/L
- Activity (Mus musculus [26]): 1183 U/L
- Activity (Mus musculus [27]): 2.35 g/dL
- Activity (Mus musculus [28]): 53 mg/dL
- Activity (Mus musculus [29]): 29.67 U/L
- Activity (Mus musculus [30]): 9.45 mg/dL
- Activity (Trypanosoma cruzi [31]): Active
- Activity (Mus musculus [32]): 155.5 U/L
- IC50 (Trypanosoma cruzi [33]): 7.5 µM
- Activity (Mus musculus [34]): 2.36 g/dL
- Activity (Mus musculus [35]): 4.75 g/dL
- selectivity ratio [36]: 50
- Activity (Mus musculus [37]): Non-toxic
- Activity (Trypanosoma cruzi [38]): Active
- CC50 at 24 h [1]: > 100 µg/mL
- Activity (Mus musculus [39]): 36 U/L
- Activity (Mus musculus [40]): 1.65 mg/dL
- Activity (Mus musculus [41]): 2.4 g/dL
- Activity (Mus musculus [42]): 17.8 mg/dL
- Activity (Mus musculus [43]): 2.73 g/dL
- Activity (Mus musculus [44]): 142.7 U/L
- Activity (Mus musculus [45]): 9.56 mg/dL
- Activity (Mus musculus [46]): 13.7 mg/dL
- Activity (Trypanosoma cruzi [47]): Active

SMILES: Cc1ccc(-c2noc(C(=O)N/N=C/c3ccc4c(c3)OCO4)n2)cc1
- inhibition [2]: 49%
- CC50 at 24 h [1]: > 100 µg/mL

SMILES: COc1cc(/C=N/NC(=O)c2nc(-c3ccc(C)cc3)no2)ccc1O
- inhibition [2]: 14%
- CC50 at 24 h [1]: > 100 µg/mL

SMILES: COc1cc(/C=N/NC(=O)c2nc(-c3ccccc3)no2)ccc1O
- inhibition [2]: 47%
- CC50 at 24 h [1]: > 100 µg/mL

SMILES: COc1cc(/C=N/NC(=O)c2nc(-c3ccc(O)cc3)no2)ccc1O
- inhibition [2]: 25%
- CC50 at 24 h [1]: > 100 µg/mL

SMILES: O=C(Cn1ccnc1[N+](=O)[O-])NCc1ccccc1 [BENZNIDAZOLE]
- IC50 (Trypanosoma cruzi [21]): 11.3 µM
- IC50 (Trypanosoma cruzi [33]): 7.5 µM
- Activity (Trypanosoma cruzi [48]): Active

SMILES: O=C(N/N=C/c1ccc2c(c1)OCO2)c1nc(-c2ccc(Br)cc2)no1
- IC50 (Cruzipain): 0.03 µM
- IC50 (Trypanosoma cruzi [21]): 13.4 µM
- inhibition [2]: 95%
- IC50 (Trypanosoma cruzi [33]): 14 µM
- Activity (Trypanosoma cruzi [38]): inactive
- CC50 at 24 h [1]: > 100 µg/mL
